Calls of active or inactive are those of the source. The rule behind the calls is not given here.
Experiments:
[1] = target: T1, CviR transcriptional regulator (Chromobacterium violaceum) (UniProt D3W065); assay: Inhibition of CviR in Chromobacterium violaceum CV026 assessed as reduction of violacein production at 100 uM after 15 hrs
T1 sequence (whole entry): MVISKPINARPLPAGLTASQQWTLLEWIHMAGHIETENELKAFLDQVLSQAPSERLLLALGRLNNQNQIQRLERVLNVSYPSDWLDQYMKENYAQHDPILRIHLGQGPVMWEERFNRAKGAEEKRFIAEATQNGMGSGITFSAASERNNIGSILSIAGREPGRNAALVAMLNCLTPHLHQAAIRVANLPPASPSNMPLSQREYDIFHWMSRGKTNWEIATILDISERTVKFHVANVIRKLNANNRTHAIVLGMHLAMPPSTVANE

[2] = target: T2, CviR transcriptional regulator (Chromobacterium violaceum, UniProt D3W065); assay: Inhibition of CviR in Chromobacterium violaceum CV026 assessed as reduction of violacein production after 15 hrs
T2 sequence (D3W065 whole entry): T1 sequence (whole entry)

[3] = target: T1, CviR transcriptional regulator (Chromobacterium violaceum); assay: Agonist activity at CviR in Chromobacterium violaceum CV026 assessed as induction of violacein production at 0.001 to 1000 uM after 15 hrs
[4] = target: T1, CviR transcriptional regulator (Chromobacterium violaceum); assay: Inhibition of CviR in Chromobacterium violaceum CV026 assessed as reduction of violacein production at 0.001 to 1000 uM after 15 hrs
[5] = system: Chromobacterium violaceum; assay: Bactericidal activity in Chromobacterium violaceum CV026 at 1000 uM; type: ADME, organism-based; conditions: in vivo
[6] = target: T1, CviR transcriptional regulator (Chromobacterium violaceum); assay: Inhibition of CviR in Chromobacterium violaceum CV026 assessed as reduction of violacein production at 0.1 uM after 15 hrs
[7] = target: T1, CviR transcriptional regulator (Chromobacterium violaceum); assay: Inhibition of CviR in Chromobacterium violaceum CV026 assessed as reduction of violacein production at 1000 uM after 15 hrs
[8] = target: T1, CviR transcriptional regulator (Chromobacterium violaceum); assay: Inhibition of CviR in Chromobacterium violaceum CV026 assessed as reduction of violacein production at 1 nM after 15 hrs
[9] = target: T1, CviR transcriptional regulator (Chromobacterium violaceum); assay: Inhibition of CviR in Chromobacterium violaceum CV026 assessed as reduction of violacein production at 100 nM after 15 hrs
[10] = target: T1, CviR transcriptional regulator (Chromobacterium violaceum); assay: Inhibition of CviR in Chromobacterium violaceum CV026 assessed as reduction of violacein production at 10 to 1000 uM after 15 hrs
[11] = system: Chromobacterium violaceum; assay: Bacteriostatic activity in Chromobacterium violaceum CV026 at 100 uM; type: ADME, organism-based; conditions: in vivo
[12] = system: Chromobacterium violaceum; assay: Bactericidal activity in Chromobacterium violaceum CV026 at 1 mM; type: ADME, organism-based; conditions: in vivo, 1000 µM

Row | SMILES | Activity [3] | inhibition [4] | also measured
1 | CCCCCCOc1ccc(C2=NCCO2)cc1 | inactive | – | inhibition [1]: Active; IC50 [2]: 97.4 µM
2 | CCCCCC(=O)NC1CCOC1=O (stereo unspecified) | inactive | – | –
3 | O=C(NC1=NCCN1)c1ccccc1 | inactive | inactive | –
4 | CCCCCCOc1ccccc1 | inactive | inactive | –
5 | O=C(NC1=NCCS1)c1ccccc1 | inactive | inactive | –
6 | CCCCCCCCCOc1ccc(C2=NCCCN2)cc1 | inactive | – | Activity [5]: Toxic
7 | CCCCCC(=O)Nc1ccc(C2=NCCN2)cc1 | inactive | – | inhibition [6]: Active
8 | O=C(COc1ccc(C2=NCCN2)cc1)Nc1ccc(Cl)cc1 | inactive | – | –
9 | O=C(Cc1ccccc1)NC1=NCCS1 | inactive | – | IC50 [2]: 670 µM; inhibition [7]: Active
10 | CCCCCCOc1ccc(C2=NCCN2)cc1 | inactive | – | inhibition [1]: Active; IC50 [2]: 90.9 µM
11 | O=C(COc1ccc(C2=NCCN2)cc1)Nc1ccccc1 | inactive | – | IC50 [2]: 66.1 µM; inhibition [10]: Active
12 | CCCCCCCCCOc1ccc(C2=NCCN2)cc1 | inactive | – | Activity [11]: Toxic; Activity [12]: Toxic
13 | COc1ccc(NC(=O)COc2ccc(C3=NCCN3)cc2)cc1 | inactive | – | IC50 [2]: 341 µM; inhibition [10]: Active

Second part, led by results:

Row | Activity [3] | inhibition [4] | SMILES | also measured
14 | inactive | inactive | CCCCCC(=O)NC1=NCCS1 | –
15 | inactive | inactive | CCCCCCCCC(=O)NC1=NCCS1 | –
16 | inactive | – | CCCCCCCCC(=O)Nc1ccc(C2=NCCN2)cc1 | inhibition [1]: 49%; inhibition [8]: 14%
17 | inactive | – | CCCCCCCCCC(=O)NC1CCOC1=O (stereo unspecified) | inhibition [9]: 51%
18 | inactive | inactive | CCCCCCCCCCCC(=O)NC1=NCCS1 | –

— ChEMBL document CHEMBL3751751, “Targeting quorum sensing by designing azoline derivatives to inhibit the N-hexanoyl homoserine lactone-receptor CviR: Synthesis as well as biological and theoretical evaluations” (Bioorg Med Chem, 2015)
